Data from patent publication US20240109918A1, “HETEROCYCLIC COMPOUNDS AND USES THEREOF” (Kumquat Biosciences Inc., priority 2022, published 2024).

Legend:
KRASG12D = molecular target: T1, KRASG12D (Homo sapiens, UniProt P01116, G12D); assay: Bio-Biochem-PPI-HTRF Ras-SOS1 interaction assay (KRAS G12D); format: biochemical; settings: 5 nM
T1 construct: made in house; host or cells: E. coli BL21 (DE3)
How it was run: (§1)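 Compounds tested in duplicate (10 μM to 0.01 μM) for disruption of His-hSOS1 binding to GST-tagged wild-type or G12D K-Ras in HEPES pH 7.4 buffer. TR-FRET read (Eu donor, XL665 acceptor) after about 10 min or longer; IC50 derived from the 665/620 nm emission ratio.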

KRASwt = molecular target: T2, KRASwt (Homo sapiens, UniProt P01116); assay: Bio-Biochem-PPI-HTRF Ras-SOS1 interaction assay (KRAS wt); format: biochemical; settings: 5 nM
T2 construct: made in house; host or cells: E. coli BL21 (DE3)
T2 sequence (P01116 1-188 isoform P01116-2): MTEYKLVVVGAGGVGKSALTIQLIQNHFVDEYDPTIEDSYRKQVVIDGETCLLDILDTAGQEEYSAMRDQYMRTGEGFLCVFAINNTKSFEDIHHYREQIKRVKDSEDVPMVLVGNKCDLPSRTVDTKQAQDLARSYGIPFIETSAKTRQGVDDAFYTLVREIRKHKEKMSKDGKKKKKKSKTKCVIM
How it was run: as §1

T1 sequence (P01116 1-188 isoform P01116-2 G12D): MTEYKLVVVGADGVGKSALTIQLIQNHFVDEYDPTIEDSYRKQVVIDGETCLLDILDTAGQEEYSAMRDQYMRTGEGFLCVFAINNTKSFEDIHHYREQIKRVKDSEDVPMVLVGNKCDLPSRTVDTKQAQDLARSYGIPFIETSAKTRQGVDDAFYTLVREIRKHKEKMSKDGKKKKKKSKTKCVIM

| Compound | IC50 (KRASG12D) [µM] | IC50 (KRASwt) [µM] |
| --- | --- | --- |
| Nc1nc2c(-c3c(Cl)cc4c(N5CCNCC56CNC6)nc(OCC56CCCN5C[C@H](F)C6)nc4c3F)ccc(F)c2s1 (stereo partly drawn) [compound 226, 4-(6-chloro-8-fluoro-2-(((2R)-2-fluorotetrahydro-1H-pyrrolizin-7a(5H)-yl)methoxy)-4-(2,5,8-triazaspiro[3.5]nonan-5-yl)quinazolin-7-yl)-7-fluorobenzo[d]thiazol-2-amine] | ≥ 5 | ≥ 5 |
| N#Cc1c(N)sc2c(F)ccc(-c3c(Cl)cc4c(N5CCCC6(CNC6)C5)nc(OC[C@@]56CCCN5C[C@H](F)C6)nc4c3F)c12 [compound 147, 2-amino-4-(6-chloro-8-fluoro-2-(((2R,7aS)-2-fluorotetrahydro-1H-pyrrolizin-7a(5H)-yl)methoxy)-4-(2,6-diazaspiro[3.5]nonan-6-yl)quinazolin-7-yl)-7-fluorobenzo[b]thiophene-3-carbonitrile] | < 5 | < 5 |
| N#Cc1c(N)sc2c(F)ccc(-c3c(Cl)cc4c(N5CCCCC6(CN(C(=O)C7(C(F)(F)F)CC7)C6)C5)nc(OC[C@@]56CCCN5C[C@H](F)C6)nc4c3F)c12 [compound 244, 2-amino-4-(6-chloro-8-fluoro-2-(((2R,7aS)-2-fluorotetrahydro-1H-pyrrolizin-7a(5H)-yl)methoxy)-4-(2-(1-(trifluoromethyl)cyclopropane-1-carbonyl)-2,6-diazaspiro[3.6]decan-6-yl)quinazolin-7-yl)-7-fluorobenzo[b] thiophene-3-carbonitrile] | < 5 | < 5 |
| N#Cc1c(N)sc2c(F)ccc(-c3c(Cl)cc4c(N5CCCCC6(CN(C(=O)N7CCC(F)(F)C7)C6)C5)nc(OC[C@@]56CCCN5C[C@H](F)C6)nc4c3F)c12 [compound 292, 2-amino-4-(6-chloro-4-(2-(3,3-difluoropyrrolidine-1-carbonyl)-2,6-diazaspiro[3.6]decan-6-yl)-8-fluoro-2-(((2R,7aS)-2-fluorotetrahydro-1H-pyrrolizin-7a(5H)-yl)methoxy)quinazolin-7-yl)-7-fluorobenzo[b]thiophene-3-carbonitrile] | < 5 | < 5 |
| N#CCC1CCN(c2nc(OC[C@@]34CCCN3C[C@H](F)C4)nc3c(F)c(-c4ccc(F)c5sc(N)c(C#N)c45)c(Cl)cc23)CC2(C1)CN(C(=O)C1CC1(F)F)C2 (stereo partly drawn) [compound 324, 2-amino-4-(6-chloro-4-(9-(cyanomethyl)-2-(2,2-difluorocyclopropane-1-carbonyl)-2,6-diazaspiro[3.6]decan-6-yl)-8-fluoro-2-(((2R,7aS)-2-fluorotetrahydro-1H-pyrrolizin-7a(5H)-yl)methoxy)quinazolin-7-yl)-7-fluorobenzo[b]thiophene-3-carbonitrile] | < 5 | < 5 |
| C[C@H](Oc1nc(N2CCCC3(CN(C(=O)[C@@H]4C[C@H]4C#N)C3)C2)c2cc(Cl)c(-c3ccc(F)c4sc(N)c(C#N)c34)c(F)c2n1)[C@@H]1CCCN1C [compound 105, 2-amino-4-(6-chloro-4-(2-((1R,2R)-2-cyanocyclopropane-1-carbonyl)-2,6-diazaspiro[3.5]nonan-6-yl)-8-fluoro-2-((S)-1-((S)-1-methylpyrrolidin-2-yl)ethoxy)quinazolin-7-yl)-7-fluorobenzo[b]thiophene-3-carbonitrile] | < 5 | < 5 |
| N#Cc1c(N)sc2c(F)ccc(-c3c(Cl)cc4c(N5CCCCC6(CN(C(=O)C78CC(C(F)(F)F)(C7)C8)C6)C5)nc(OC[C@@]56CCCN5C[C@H](F)C6)nc4c3F)c12 [compound 237, 2-amino-4-(6-chloro-8-fluoro-2-(((2R,7aS)-2-fluorotetrahydro-1H-pyrrolizin-7a(5H)-yl)methoxy)-4-(2-(3-(trifluoromethyl)bicyclo[1.1.1]pentane-1-carbonyl)-2,6-diazaspiro[3.6]decan-6-yl)quinazolin-7-yl)-7-fluorobenzo[b]thiophene-3-carbonitrile] | < 5 | < 5 |
| CC(=O)N1CC2(CCCN(c3nc(OC[C@@]45CCCN4C[C@H](F)C5)nc4c(F)c(-c5ccc(F)c6sc(N)c(C#N)c56)c(Cl)cc34)C2)C1 [compound 169, 4-(4-(2-acetyl-2,6-diazaspiro[3.5]nonan-6-yl)-6-chloro-8-fluoro-2-(((2R,7aS)-2-fluorotetrahydro-1H-pyrrolizin-7a(5H)-yl)methoxy)quinazolin-7-yl)-2-amino-7-fluorobenzo[b]thiophene-3-carbonitrile] | < 5 | < 5 |

The next lines start with the values.

| IC50 (KRASG12D) [µM] | IC50 (KRASwt) [µM] | Compound |
| --- | --- | --- |
| < 5 | < 5 | N#Cc1c(N)sc2c(F)ccc(-c3c(Cl)cc4c(N5CCCCC6(CN(C(=O)CC7CCOCC7)C6)C5)nc(OC[C@@]56CCCN5C[C@H](F)C6)nc4c3F)c12 [compound 204, 2-amino-4-(6-chloro-8-fluoro-2-(((2R,7aS)-2-fluorotetrahydro-1H-pyrrolizin-7a(5H)-yl)methoxy)-4-(2-(2-(tetrahydro-2H-pyran-4-yl)acetyl)-2,6-diazaspiro[3.6]decan-6-yl)quinazolin-7-yl)-7-fluorobenzo[b]thiophene-3-carbonitrile] |
| < 5 | < 5 | N#Cc1c(N)sc2c(F)ccc(-c3c(Cl)cc4c(N5CCCC6(CCNC6)C5)nc(OC[C@@]56CCCN5C[C@H](F)C6)nc4c3F)c12 (stereo partly drawn) [compound 111, 2-amino-4-(6-chloro-8-fluoro-2-(((2R,7aS)-2-fluorotetrahydro-1H-pyrrolizin-7a(5H)-yl)methoxy)-4-(2,7-diazaspiro[4.5]decan-7-yl)quinazolin-7-yl)-7-fluorobenzo[b]thiophene-3-carbonitrile] |
| < 5 | < 5 | N#Cc1c(N)sc2c(F)ccc(-c3c(Cl)cc4c(N5CCCCC6(CN(C(=O)[C@H]7C[C@H]7F)C6)C5)nc(OC[C@@]56CCCN5C[C@H](F)C6)nc4c3F)c12 [compound 193, 2-amino-4-(6-chloro-8-fluoro-4-(2-((1R,2R)-2-fluorocyclopropane-1-carbonyl)-2,6-diazaspiro[3.6]decan-6-yl)-2-(((2R,7aS)-2-fluorotetrahydro-1H-pyrrolizin-7a(5H)-yl)methoxy)quinazolin-7-yl)-7-fluorobenzo[b]thiophene-3-carbonitrile] |
| < 5 | < 5 | N#Cc1c(N)sc2c(F)ccc(-c3c(Cl)cc4c(N5CCCCC6(CN(C(=O)C7CC78CC8)C6)C5)nc(OC[C@@]56CCCN5C[C@H](F)C6)nc4c3F)c12 (stereo partly drawn) [compound 286, 2-amino-4-(6-chloro-8-fluoro-2-(((2R,7aS)-2-fluorotetrahydro-1H-pyrrolizin-7a(5H)-yl)methoxy)-4-(2-(spiro[2.2]pentane-1-carbonyl)-2,6-diazaspiro[3.6]decan-6-yl)quinazolin-7-yl)-7-fluorobenzo[b]thiophene-3-carbonitrile] |
| < 5 | < 5 | N#Cc1c(N)sc2c(F)ccc(-c3c(Cl)cc4c(N5CCCCC6(CN(C(=O)C7CC8(C7)CC8(F)F)C6)C5)nc(OC[C@@]56CCCN5C[C@H](F)C6)nc4c3F)c12 (stereo partly drawn) [compound 309, 2-amino-4-(6-chloro-4-(2-(1,1-difluorospiro[2.3]hexane-5-carbonyl)-2,6-diazaspiro[3.6]decan-6-yl)-8-fluoro-2-(((2R,7aS)-2-fluorotetrahydro-1H-pyrrolizin-7a(5H)-yl)methoxy)quinazolin-7-yl)-7-fluorobenzo[b]thiophene-3-carbonitrile] |
| < 5 | < 5 | C#CN1CCC2(CCN(c3nc(OC[C@@]45CCCN4C[C@H](F)C5)nc4c(F)c(-c5ccc(F)c6sc(N)c(C#N)c56)c(Cl)cc34)C2)C1=O (stereo partly drawn) [compound 225, 2-amino-4-(6-chloro-4-(7-ethynyl-6-oxo-2,7-diazaspiro[4.4]nonan-2-yl)-8-fluoro-2-(((2R,7aS)-2-fluorotetrahydro-1H-pyrrolizin-7a(5H)-yl)methoxy)quinazolin-7-yl)-7-fluorobenzo[b]thiophene-3-carbonitrile] |
| < 5 | < 5 | N#Cc1c(N)sc2c(F)ccc(-c3c(Cl)cc4c(N5CC(F)(F)CCC6(CN(C(=O)[C@@H]7CC7(F)F)C6)C5)nc(OC[C@@]56CCCN5C[C@H](F)C6)nc4c3F)c12 [compound 232, 2-amino-4-(6-chloro-4-(2-((S)-2,2-difluorocyclopropane-1-carbonyl)-8,8-difluoro-2,6-diazaspiro[3.6]decan-6-yl)-8-fluoro-2-(((2R,7aS)-2-fluorotetrahydro-1H-pyrrolizin-7a(5H)-yl)methoxy)quinazolin-7-yl)-7-fluorobenzo[b]thiophene-3-carbonitrile] |
| < 5 | < 5 | N#CN1CC2(C1)CN(c1nc(OC[C@@]34CCCN3C[C@H](F)C4)nc3c(F)c(-c4ccc(F)c5sc(N)nc45)c(Cl)cc13)CCO2 [compound 187, 8-(7-(2-amino-7-fluorobenzo[d]thiazol-4-yl)-6-chloro-8-fluoro-2-(((2R,7aS)-2-fluorotetrahydro-1H-pyrrolizin-7a(5H)-yl)methoxy)quinazolin-4-yl)-5-oxa-2,8-diazaspiro[3.5]nonane-2-carbonitrile] |
| < 5 | < 5 | CN(C)C(=O)N1CC2(CCCN(c3nc(OC[C@@]45CCCN4C[C@H](F)C5)nc4c(F)c(-c5ccc(F)c6sc(N)c(C#N)c56)c(Cl)cc34)C2)C1 [compound 119, 6-(7-(2-amino-3-cyano-7-fluorobenzo[b]thiophen-4-yl)-6-chloro-8-fluoro-2-(((2R,7aS)-2-fluorotetrahydro-1H-pyrrolizin-7a(5H)-yl)methoxy)quinazolin-4-yl)-N,N-dimethyl-2,6-diazaspiro[3.5]nonane-2-carboxamide] |
| < 5 | < 5 | N#CCC(=O)N1CC2(CCCCN(c3nc(OC[C@@]45CCCN4C[C@H](F)C5)nc4c(F)c(-c5ccc(F)c6sc(N)c(C#N)c56)c(Cl)cc34)C2)C1 [compound 194, 2-amino-4-(6-chloro-4-(2-(2-cyanoacetyl)-2,6-diazaspiro[3.6]decan-6-yl)-8-fluoro-2-(((2R,7aS)-2-fluorotetrahydro-1H-pyrrolizin-7a(5H)-yl)methoxy)quinazolin-7-yl)-7-fluorobenzo[b]thiophene-3-carbonitrile] |
